Results published in patent publication US11311540B2, “Increasing expression of interferon regulated genes with combinations of histone deacetylase inhibitors and immunomodulatory drugs” (ACETYLON PHARMACEUTICALS, INC., priority 2016, dated 2022).

Tests used:
[1] = test system: CCL4; assay: CCL4 gene expression (microarray probes); type: cell-based, human; conditions: Compound A 2, 3, 4 μM, pomalidomide 1 μM; 24 hour and 48 hour
Description: (§1) The chip comprises a human gene expression array having more than 530,000 probes covering more than 36,000 transcripts and variants, which represent more than 20,000 genes mapped through RefSeq or via UniGene annotation. […] In the table, “A” indicates Compound A, and “Pom” indicates pomalidomide.
(§2) Each bar in each group of bars per treatment represents individual transcript probes for measuring gene expression level. […] Finally, there also appeared to be independent time components for each transcript.

[2] = test system: α-tubulin; assay: Acetylation of α-tubulin in H929 cells (immunoblot); type: cell-based
[3] = test system: XAF1; assay: XAF1 gene expression (microarray probes); type: cell-based, human; conditions: Compound A 2, 3, 4 μM, pomalidomide 1 μM; 24 hour and 48 hour
Description: as §1, §2

[4] = test system: H929 cells; assay: Apoptosis by flow cytometry (Annexin V / propidium iodide); type: cell-based; conditions: 5 and 7 days, Compound A 2 μM, lenalidomide 2 μM, pomalidomide 1 μM
Description: Flow cytometry analysis was then used to measure the number of healthy and apoptotic cells under each treatment condition.
(§3) H929 (FIGS. 7A & 7B) or MM.1s (FIGS. 7C & 7D) myeloma cells were exposed to drug for 5 (FIGS. 7A & 7C) and 7 (FIGS. 7B & 7D) days, and apoptosis was assessed by flow cytometry by measuring Annexin V binding and cellular permeability to propidium iodide. The relative fraction of cells that were live, in early apoptosis, in late apoptosis, or dead was then determined.

[5] = test system: CASP1; assay: CASP1 gene expression (microarray probes); type: cell-based, human; conditions: Compound A 2, 3, 4 μM, pomalidomide 1 μM; 24 and 48 hours
Description: as §1
(§4) Finally, both effects were enhanced with time, though dose-dependence was less clear at 48 hours.

[6] = test system: myc target genes; assay: Gene Set Enrichment Analysis (GSEA) of microarray data; type: cell-based, human; conditions: single agent vs. DMSO at 48 hours (pomalidomide 1 μM; Compound A 4 μM)
Description: (§5) The data acquired from Example 7 was analyzed using two approaches: (1) Gene Set Enrichment Analysis (GSEA), and in the (2) Library of Integrated Network-based Cellular Signatures (LINCS) database.
(§6) The goal of the GSEA was to identify gene sets that are enriched in combination treatment over single agent treatment. […] Relevant gene sets were those that were enriched in both queries in the same direction (increased or decreased). For this analysis, the “hallmark gene sets” was chosen as the database, which comprises coherently expressed signatures derived by aggregating many molecular signatures database (MSigDB) gene sets to represent well-defined biological states or processes.

[7] = test system: interferon regulated genes; assay: as above; type: cell-based, human; conditions: single agent vs. DMSO at 48 hours (pomalidomide 1 μM; Compound A 4 μM)
Description: as §5, §6

[8] = test system: BIRC5; assay: BIRC5 (survivin) gene expression (microarray probes); type: cell-based, human; conditions: Compound A 2, 3, 4 μM, pomalidomide 1 μM; 24 and 48 hours
Description: as §1, §4

[9] = test system: MM.1s myeloma cells; assay: Apoptosis by flow cytometry (Annexin V / propidium iodide); type: cell-based; conditions: 5 and 7 days, Compound A 2 μM, lenalidomide 2 μM, pomalidomide 1 μM
Description: as §3

[10] = Phase I trials; cited from earlier work
[11] = test system: preclinical models of MM; conditions: in vitro and in vivo; cited from earlier work
[12] = test system: MM.1s myeloma cells; assay: Cell cycle distribution by flow cytometry (propidium iodide); type: cell-based; conditions: 3 and 5 days, Compound A 2 μM, lenalidomide 2 μM, pomalidomide 1 μM
Description: (§7) H929 (FIGS. 6A & 6B) or MM.1s (FIGS. 6C & 6D) myeloma cells were exposed to drug for 3 (FIGS. 6A & 6C) and 5 (FIGS. 6B & 6D) days and cell cycle distribution was assessed by flow cytometry via incorporation of propidium iodide. The relative fraction of cells in each stage of the cell cycle (G0/G1, S, and G2/M) as well as the fraction of dead cells (Sub G1) was then estimated.

[13] = test system: H929 myeloma cells; assay: as above; type: cell-based; conditions: 3 and 5 days, Compound A 2 μM, lenalidomide 2 μM, pomalidomide 1 μM
Description: as §7

[14] = Body weight and tolerability in CB17-SCID mice; type: in vivo
Description: Mice carrying H929 tumor xenografts were treated with DMSO, Compound B (50 mg/kg IP QD), pomalidomide (1 mg/kg IP QD), or the combination of Compound B (50 mg/kg IP QD) and pomalidomide (1 mg/kg IP QD) daily for up to 42 days.

[15] = biological target: T1, HDAC6 (Homo sapiens, UniProt Q9UBN7); assay: HDAC6 selectivity over other HDACs; type: biochemical
T1 sequence (Q9UBN7 1-1215): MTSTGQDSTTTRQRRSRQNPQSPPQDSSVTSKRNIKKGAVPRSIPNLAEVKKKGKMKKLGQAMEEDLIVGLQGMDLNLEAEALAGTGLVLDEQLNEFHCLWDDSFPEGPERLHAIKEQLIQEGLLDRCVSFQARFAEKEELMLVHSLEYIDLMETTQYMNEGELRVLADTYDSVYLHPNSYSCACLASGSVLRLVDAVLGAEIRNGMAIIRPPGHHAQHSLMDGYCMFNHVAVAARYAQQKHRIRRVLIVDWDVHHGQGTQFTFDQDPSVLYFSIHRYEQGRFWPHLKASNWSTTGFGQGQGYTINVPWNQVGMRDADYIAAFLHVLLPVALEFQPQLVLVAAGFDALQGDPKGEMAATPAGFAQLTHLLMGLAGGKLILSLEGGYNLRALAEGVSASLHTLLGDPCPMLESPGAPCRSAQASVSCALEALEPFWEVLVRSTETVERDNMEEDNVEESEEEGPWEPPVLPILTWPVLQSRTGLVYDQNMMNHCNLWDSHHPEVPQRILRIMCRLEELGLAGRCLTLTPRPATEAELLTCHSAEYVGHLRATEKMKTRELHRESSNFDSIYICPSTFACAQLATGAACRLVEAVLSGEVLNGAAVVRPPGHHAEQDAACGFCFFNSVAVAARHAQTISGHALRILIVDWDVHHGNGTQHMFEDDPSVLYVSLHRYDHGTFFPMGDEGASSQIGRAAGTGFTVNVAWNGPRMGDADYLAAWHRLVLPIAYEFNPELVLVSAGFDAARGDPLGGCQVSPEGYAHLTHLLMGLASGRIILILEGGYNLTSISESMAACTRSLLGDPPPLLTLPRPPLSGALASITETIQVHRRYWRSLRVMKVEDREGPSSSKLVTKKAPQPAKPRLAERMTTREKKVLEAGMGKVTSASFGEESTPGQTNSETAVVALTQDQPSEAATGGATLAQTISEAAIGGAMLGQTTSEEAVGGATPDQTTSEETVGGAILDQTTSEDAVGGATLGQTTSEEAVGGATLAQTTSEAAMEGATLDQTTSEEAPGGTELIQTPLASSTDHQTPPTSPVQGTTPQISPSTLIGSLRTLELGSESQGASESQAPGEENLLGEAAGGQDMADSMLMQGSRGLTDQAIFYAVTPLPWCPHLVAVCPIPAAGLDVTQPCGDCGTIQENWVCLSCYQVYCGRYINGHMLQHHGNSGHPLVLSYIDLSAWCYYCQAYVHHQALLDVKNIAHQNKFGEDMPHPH
Description: The synthesis of the compounds of Formula I is provided in PCT/US2011/021982, which is incorporated herein by reference in its entirety. The synthesis of compounds of Formula II is provided in PCT/US2011/060791, which is incorporated herein by reference in its entirety. The synthesis of the compounds of Formula III is provided in U.S. Pat. Nos. 5,635,517; 6,281,230; 6,335,349; and 6,476,052; and in International Patent Application No. PCT/US97/013375, each of which is incorporated herein by reference in its entirety.

[16] = test system: H929; assay: Expression profiling with Affymetrix […] microarrays, number of differentially regulated genes; type: cell-based, human; conditions: pomalidomide 1 μM
Description: as §1

O=C(CCCCCCNC(=O)c1cnc(N(c2ccccc2)c2ccccc2)nc1)NO [Compound A, 2-(diphenylamino)-N-(7-(hydroxyamino)-7-oxoheptyl)pyrimidine-5-carboxamide]
CCL4 expression [1]: consistent dose-dependent induction
inhibition of HDAC6: acetylation of α-tubulin [2]: hyperacetylation of α-tubulin
XAF1 expression [3]: consistent dose-dependent induction
apoptosis [4]: small increase in apoptosis
CASP1 expression [5]: consistent dose-dependent effect
Normalized Enrichment Score (NES), myc targets [6]: −2.23
Normalized Enrichment Score (NES), interferon regulated genes [7]: 2.72
BIRC5 expression [8]: consistent dose-dependent effect
apoptosis [9]: small increase in apoptosis
safety and tolerability profile [10]: improved safety and tolerability profile
synergy with bortezomib [11]: synergizes in vitro and in vivo with bortezomib
cell cycle distribution [12]: small reduction of cells undergoing division in S phase
cell cycle distribution [13]: small reduction of cells undergoing division in S phase

O=C(CCCCCCNC(=O)c1cnc(N(c2ccccc2)c2ccccc2Cl)nc1)NO [Compound B, 2-((2-chlorophenyl)(phenyl)amino)-N-(7-(hydroxyamino)-7-oxoheptyl)pyrimidine-5-carboxamide]
tolerability, body weight [14]: very well tolerated with no weight loss and no evidence of overt toxicity

O=C(NO)c1cnc(NC2(c3cccc(F)c3)CCCCC2)nc1 [Compound C, 2-((1-(3-fluorophenyl)cyclohexyl)amino)-N-hydroxypyrimidine-5-carboxamide]
selective for HDAC6 over class I HDACs [15]: more than 300 fold

Nc1cccc2c1C(=O)N(C1CCC(=O)NC1=O)C2=O (stereo not shown) [pomalidomide, reference compound]
number of genes with fold expression changes greater than 2 relative to vehicle: Down ([16]; 24 h): 531
number of genes with fold expression changes greater than 2 relative to vehicle: Total ([16]; 24 h): 979
number of genes with fold expression changes greater than 2 relative to vehicle: Up ([16]; 24 h): 448
number of genes with fold expression changes greater than 2 relative to vehicle: Down ([16]; 48 h): 865
number of genes with fold expression changes greater than 2 relative to vehicle: Total ([16]; 48 h): 1905
number of genes with fold expression changes greater than 2 relative to vehicle: Up ([16]; 48 h): 1040
CCL4 expression [1]: small induction
tolerability, body weight [14]: very well tolerated with no weight loss and no evidence of overt toxicity
XAF1 expression [3]: small induction
CASP1 expression [5]: relatively small change
Normalized Enrichment Score (NES), myc targets [6]: −1.97
Normalized Enrichment Score (NES), interferon regulated genes [7]: 2.87
BIRC5 expression [8]: relatively small change
